We go through 33 molecules from PMC3984044 (ChemMedChem, 2013).

Usually EC50 stands for the concentration at which the effect is half-maximal. Usually Cmax stands for the highest concentration seen after dosing. By half-life is commonly meant the time needed for the level to fall by half in the phase considered. Low readings indicate fast loss, high ones slow loss. The term AUC denotes the area under the concentration-time curve, a measure of exposure. A low value points to low exposure.

Data set [1] relates to PrP^Sc levels in ScN2a-cl3 cells. Description: cells. In kind it is cell-based, mouse.
The nature of the next data set: in vivo. The conditions noted are these: mouse, po, 10 mg/kg.
A further data set can be described thus: in vitro. The note with it: mouse, microsomes.
For data set [2] the following is noted: mouse, in vivo; cited from earlier work.
For data set [3] the following is noted: mouse, microsomes.
[4] abbreviates: Mus musculus, read-out: EC50 ± SEM(nM).

Structures can show the parent of a compound that is named as a salt. Where two headings read alike, the source gives them in different places. Some results are limits rather than exact numbers.

For the molecule `Cc1cccc(Nc2nc(-c3ccc(-c4ccccc4)cc3)cs2)n1` [Compound 1, (4-Biphenyl-4-yl-thiazol-2-yl)-(6-methyl-pyridin-2-yl)-amine], in data set [1] (setting [4]), the concentration giving a half-maximal response (EC50) stood at 1290 ± 122 nM. For the same molecule, in “in vivo”, the Cmax stood at 2450 ± 740 nM. Also, the half-life in the data set “in vitro” is more than 60 min. The “oral bioavailability (%F)” value in data set [2] was approximately 40%. Take `Cc1cccc(Nc2nc(-c3ccc(-c4ccncc4)cc3)cs2)n1` [Compound 12, (6-Methyl-pyridin-2-yl)-[4-(4-pyridin-4-yl-phenyl)-thiazol-2-yl]-amine]: the “fold greater antiprion potency than 1” value in data set [1] is given as more than 10 fold. The concentration giving a half-maximal response (EC50) in data set [1] (setting [4]) worked out at 87 ± 43 nM. Moreover, in the data set “in vitro”, the half-life was more than 60 min. Take `Cc1cccc(Nc2nc(-c3ccc(-c4cc[n+]([O-])cc4)cc3)cs2)n1` [Compound 13, 4-(4-(2-((6-Methylpyridin-2-yl)amino)thiazol-4-yl)phenyl)pyridine 1-oxide]: the EC50 in data set [1] (setting [4]) is 559 ± 120 nM. With `Cc1cccc(Nc2nc(-c3ccc(-c4ccncc4C)cc3)cs2)n1` [Compound 14, (6-Methyl-pyridin-2-yl)-{4-[4-(3-methyl-pyridin-4-yl)-phenyl]-thiazol-2-yl}-amine trifluoro acetic acid salt], the EC50 in data set [1] (setting [4]) came out at 400 ± 61 nM. In the case of `Cc1cccc(Nc2nc(-c3ccc(-c4cccnc4)cc3)cs2)n1` [Compound 15, (6-Methyl-pyridin-2-yl)-[4-(4-pyridin-3-yl-phenyl)-thiazol-2-yl]-amine], the “fold greater antiprion potency than 1” value in data set [1] is reported as more than 10 fold. In addition, the concentration for a half-maximal effect (EC50) in data set [1] (setting [4]) was 68 ± 13 nM. The molecule also gave a half-life in the data set “in vitro” of more than 60 min. `Cc1cccc(Nc2nc(-c3ccc(-c4ccc[n+]([O-])c4)cc3)cs2)n1` [Compound 16, 3-(4-(2-((6-Methylpyridin-2-yl)amino)thiazol-4-yl)phenyl)pyridine 1-oxide]: the half-maximal effective concentration (EC50) in data set [1] (setting [4]) worked out at 203 ± 10 nM. Also, the Cmax in the data set “in vivo” turned out to be 900 ± 240 nM. Besides, the exposure (AUC) in the data set “in vivo” (AUC (μM *h) Brain) stood at 3.85 ± 0.52 µM·h; in “in vivo” (AUC (μM *h) Plasma), 11.5 ± 0.71 µM·h. This molecule also registered a half-life in the data set “in vitro” of more than 60 min.

In the case of `Cc1cccc(Nc2nc(-c3ccc(-c4cccnc4C)cc3)cs2)n1` [Compound 17, (6-Methyl-pyridin-2-yl)-{4-[4-(2-methyl-pyridin-3-yl)-phenyl]-thiazol-2-yl}-amine trifluoro acetic acid salt], the EC50 in data set [1] (setting [4]) turned out to be 618 ± 54 nM. On the same count and under the same terms, the value for `Cc1cccc(Nc2nc(-c3ccc(-c4ccnn4C)cc3)cs2)n1` [Compound 18, {4-[4-(2-Methyl-2H-pyrazol-3-yl)-phenyl]-thiazol-2-yl}-(6-methyl-pyridin-2-yl)-amine] was 89 ± 35 nM; that for `Cc1cccc(Nc2nc(-c3ccc(-c4c(C)noc4C)cc3)cs2)n1` [Compound 19, {4-[4-(3,5-Dimethyl-isoxazol-4-yl)-phenyl]-thiazol-2-yl}-(6-methyl-pyridin-2-yl)-amine] was 2130 ± 226 nM; that for `Cc1cccc(Nc2nc(-c3ccc(N4CCN(C)CC4)cc3)cs2)n1` [Compound 20, {4-[4-(4-Methyl-piperazin-1-yl)-phenyl]-thiazol-2-yl}-(6-methyl-pyridin-2-yl)-amine] was 840 ± 132 nM. Consider `Cc1cccc(Nc2nc(-c3ccc(N4CCOCC4)cc3)cs2)n1` [Compound 21, (6-Methyl-pyridin-2-yl)-[4-(4-morpholin-4-yl-phenyl)-thiazol-2-yl]-amine], for which the EC50 in data set [1] (setting [4]) stood at 51 ± 7 nM. Consider `COCCOc1cccc(Nc2nc(-c3ccc(-c4ccccc4)cc3)cs2)n1` [Compound 22, 4-([1,1′-Biphenyl]-4-yl)-N-(6-(2-methoxyethoxy)pyridin-2-yl)thiazol-2-amine], for which, in data set [1], the “antiprion activity (in words)” value was “inactive”. Besides, the EC50 in data set [1] (setting [4]) is more than 10000 nM. Regarding `CN(C)c1cccc(Nc2nc(-c3ccc(-c4ccccc4)cc3)cs2)n1` [Compound 23, N2-(4-([1,1′-biphenyl]-4-yl)thiazol-2-yl)-N6,N6-dimethylpyridine-2,6-diamine], in data set [1] (setting [4]), the EC50 is 699 ± 87 nM. Still for that read-out and setting: the value for `CN1CCN(c2cccc(Nc3nc(-c4ccc(-c5ccccc5)cc4)cs3)n2)CC1` [Compound 24, 4-([1,1′-Biphenyl]-4-yl)-N-(6-(4-methylpiperazin-1-yl)pyridin-2-yl)thiazol-2-amine] was 1180 ± 206 nM; that for `COc1ccc(-c2ccc(-c3csc(Nc4cccc(C)n4)n3)cc2)cn1` [Compound 25, {4-[4-(6-Methoxy-pyridin-3-yl)-phenyl]-thiazol-2-yl}-(6-methyl-pyridin-2-yl)-amine] was 140 ± 23 nM. With `COCCOc1cc(-c2ccc(-c3csc(Nc4cccc(C)n4)n3)cc2)ccn1` [Compound 26, 4-(4-(2-(2-methoxyethoxy)pyridin-4-yl)phenyl)-N-(6-methylpyridin-2-yl)thiazol-2-amine], in data set [1] (setting [4]), the EC50 worked out at 153 ± 36 nM. For the same molecule, the Cmax in “in vivo” came to 330 ± 160 nM. The molecule further gave an AUC in “in vivo” (AUC (μM *h) Brain) of 1.04 ± 0.13 µM·h.

`COCCOc1ccc(-c2ccc(-c3csc(Nc4cccc(C)n4)n3)cc2)cn1` [Compound 27, 4-(4-(6-(2-methoxyethoxy)pyridin-3-yl)phenyl)-N-(6-methylpyridin-2-yl)thiazol-2-amine]: in data set [1] (setting [4]), the concentration giving a half-maximal response (EC50) came out at 137 ± 13 nM. This molecule also had a Cmax in the data set “in vivo” of 970 ± 220 nM. The AUC in the data set “in vivo” (AUC (μM *h) Brain) is 3.27 ± 0.44 µM·h; in “in vivo” (AUC (μM *h) Plasma), 6.75 ± 0.45 µM·h. Moreover, the half-life in “in vitro” is more than 60 min. Turning to `Cc1cccc(Nc2nc(-c3ccc(-c4ccnc(OC(C)C)c4)cc3)cs2)n1` [Compound 28, 4-(4-(2-isopropoxypyridin-4-yl)phenyl)-N-(6-methylpyridin-2-yl)thiazol-2-amine], the 50% effective concentration (EC50) in data set [1] (setting [4]) was found to be 2840 ± 22 nM. Consider `Cc1cccc(Nc2nc(-c3ccc(-c4ccc(OC(C)C)nc4)cc3)cs2)n1` [Compound 29, 4-(4-(6-Isopropoxypyridin-3-yl)phenyl)-N-(6-methylpyridin-2-yl)thiazol-2-amine], for which, in data set [1] (setting [4]), the EC50 turned out to be 5860 ± 327 nM. With `Cc1cccc(Nc2nc(-c3ccc(-c4ccnc(N(C)C)c4)cc3)cs2)n1` [Compound 30, 4-(4-(2-(dimethylamino)pyridin-4-yl)phenyl)-N-(6-methylpyridin-2-yl)thiazol-2-amine], the concentration giving a half-maximal response (EC50) in data set [1] (setting [4]) is 123 ± 35 nM.

`Cc1cccc(Nc2nc(-c3ccc(-c4ccc(N(C)C)nc4)cc3)cs2)n1` [Compound 31, 4-(4-(6-(Dimethylamino)pyridin-3-yl)phenyl)-N-(6-methylpyridin-2-yl)thiazol-2-amine]: in data set [1] (setting [4]), the EC50 turned out to be 69 ± 21 nM. In the case of `Cc1cccc(Nc2nc(-c3ccc(-c4ccnc(N5CCN(C)CC5)c4)cc3)cs2)n1` [Compound 32, 4-(4-(2-(4-methylpiperazin-1-yl)pyridin-4-yl)phenyl)-N-(6-methylpyridin-2-yl)thiazol-2-amine], the concentration for a half-maximal effect (EC50) in data set [1] (setting [4]) turned out to be 759 ± 374 nM. In the data set “in vivo”, this molecule came in with a maximum concentration (Cmax) of 1170 ± 190 nM. The figures for the AUC in the data set “in vivo” (AUC (μM *h) Brain) and in “in vivo” (AUC (μM *h) Plasma) were 5.22 ± 0.1 µM·h and 1.57 ± 0.15 µM·h, respectively. In “in vitro”, this molecule yielded a half-life of 6.8 min. With `Cc1cccc(Nc2nc(-c3ccc(-c4ccc(N5CCN(C)CC5)nc4)cc3)cs2)n1` [Compound 33, 4-(4-(6-(4-Methylpiperazin-1-yl)pyridin-3-yl)phenyl)-N-(6-methylpyridin-2-yl)thiazol-2-amine], in data set [1] (setting [4]), the half-maximal effective concentration (EC50) was 96 ± 31 nM. Turning to `O=C(Nc1nc(-c2ccc(-c3ccccc3)cc2)cs1)C1CC1` [Compound 34, cyclopropanecarboxylic acid (4-biphenyl-thiazol-2-yl)-amide], the concentration giving a half-maximal response (EC50) in data set [1] (read-out: EC50 ± SEM) is 248 ± 67 nM. Moreover, in data set [3], the “T1/2” value is more than 60 min.

Regarding `O=C(Nc1nc(-c2ccc(-c3ccncc3)cc2)cs1)C1CC1` [Compound 39, Cyclopropanecarboxylic acid [4-(4-pyridin-4-yl-phenyl)-thiazol-2-yl]-amide trifluoroacetic acid salt], in data set [1] (setting [4]), the 50% effective concentration (EC50) is 173 ± 16 nM.

In the case of `Cc1ncccc1-c1ccc(-c2csc(NC(=O)C3CC3)n2)cc1` [Compound 40, Cyclopropanecarboxylic acid {4-[4-(2-methyl-pyridin-3-yl)-phenyl]-thiazol-2-yl}-amide], the EC50 in data set [1] (setting [4]) was more than 10000 nM. Take `CN(C)c1ccc(-c2ccc(-c3csc(NC(=O)C4CC4)n3)cc2)cn1` [Compound 41, Cyclopropanecarboxylic acid {4-[4-(6-dimethylamino-pyridin-3-yl)-phenyl]-thiazol-2-yl}-amide]: the EC50 in data set [1] (setting [4]) was 109 ± 12 nM.

Turning to `Cn1nccc1-c1ccc(-c2csc(NC(=O)C3CC3)n2)cc1` [Compound 42, Cyclopropanecarboxylic acid {4-[4-(2-methyl-2H-pyrazol-3-yl)-phenyl]-thiazol-2-yl}-amide], the concentration for a half-maximal effect (EC50) in data set [1] (setting [4]) is more than 10000 nM. The same measure, in the same setting: the value for `Cc1noc(C)c1-c1ccc(-c2csc(NC(=O)C3CC3)n2)cc1` [Compound 43, Cyclopropanecarboxylic acid {4-[4-(3,5-dimethyl-isoxazol-4-yl)-phenyl]-thiazol-2-yl}-amide] was more than 10000 nM; that for `COCCOc1cc(-c2ccc(-c3csc(NC(=O)C4CC4)n3)cc2)ccn1` [Compound 44, N-(4-(4-(2-(2-methoxyethoxy)pyridin-4-yl)phenyl)thiazol-2-yl)cyclopropanecarboxamide] was 1320 ± 233 nM. For `CN1CCN(c2cc(-c3ccc(-c4csc(NC(=O)C5CC5)n4)cc3)ccn2)CC1` [Compound 45, N-(4-(4-(2-(4-methylpiperazin-1-yl)pyridin-4-yl)phenyl)thiazol-2-yl)cyclopropanecarboxamide], the EC50 in data set [1] (setting [4]) came to 682 ± 100 nM. Also, the concentration in “in vivo” peaked (Cmax) at 250 ± 110 nM. Further, the values for the AUC in “in vivo” (AUC (μM *h) Brain) and in the data set “in vivo” (AUC (μM *h) Plasma) were 1.29 ± 0.02 µM·h and 0.76 ± 0.01 µM·h, respectively. The same molecule had a half-life in the data set “in vitro” of 4.4 min. On the same counts, the results for `COCCOc1ccc(-c2ccc(-c3csc(NC(=O)C4CC4)n3)cc2)cn1` [Compound 46, N-(4-(4-(6-(2-methoxyethoxy)pyridin-3-yl)phenyl)thiazol-2-yl)cyclopropanecarboxamide] are 118 ± 11 nM, 150 ± 10 nM, 0.32 µM·h, 0.26 ± 0.01 µM·h and 55 min. Take `CN1CCN(c2ccc(-c3ccc(-c4csc(NC(=O)C5CC5)n4)cc3)cn2)CC1` [Compound 47, N-(4-(4-(6-(4-methylpiperazin-1-yl)pyridin-3-yl)pheyl)thiazol-2-yl)cyclopropanecarboxamide]: the concentration giving a half-maximal response (EC50) in data set [1] (read-out: EC50 ± SEM) turned out to be 70 ± 23 nM. The “T1/2” value in data set [3] is 2.5 min.
